In US9908890B2, “Selective inhibitors of constitutive androstane receptor” (ST. JUDE CHILDREN'S RESEARCH HOSPITAL, priority 2014, dated 2018):

Columns and labels:
[1] = system: CAR binding to CYP2B6 and CYP3A4 promoter response elements; experiment: Chromatin immunoprecipitation (CAR / RNA polymerase II occupancy at promoters); assay type: cell-based, human
Protocol: FIG. 8B and FIG. 8C show the fold enrichment of CAR at CYP2B6-dNR3 and CYP2B6-PBREM sites, respectively, in the promoter region following the indicated treatment in human primary hepatocytes. […] Protein complexes were cross-linked and chromatin was immunoprecipitated by using anti-CAR antibody or control IgG. CAR occupancy at two separate CYP2B6 promoter regions (dNR3 and PBREM) was determined by performing quantitative RT-PCR assays. Fold-enrichment normalized to IgG control was plotted. Data represent the mean±SD of 3 experiments. *, p<0.01 comparing CITCO treatment to DMSO treatment.
FIG. 9A, FIG. 9B, and FIG. 9C show the fold enrichment of CAR at CYP2B6-dNR3, CYP3A4-XREM, and CYP2B6-dNR3 sites, respectively, in the promoter region following the indicated treatment in human primary hepatocytes or HepG2-hCAR1 cells, as indicated in the figures. Briefly, in FIG. 9A and FIG. […] 9C HepG2-hCAR1 stable cells were treated for […] with DMSO, 1 μM CITCO, 5 μM CINPA1, or 1 μM CITCO+5 μM CINPA1. Protein complexes were cross-linked and chromatin was immunoprecipitated by using anti-CAR antibody, anti-RNA polymerase II (RPol) antibody, or control IgG. CAR or RPol occupancy at the CYP2B6-dNR3 region and CYP3A4-XREM region was determined by performing quantitative RT-PCR assays. Fold-enrichment was normalized to IgG control. Data represent the mean±SD of 3 experiments. *, p<0.001 and #, p<0.01 comparing CITCO to DMSO samples. **, p<0.001 and ##, p<0.01 comparing CITCO+CINPA1 to CITCO samples.
ChIP was performed as described previously (Cherian, M. T., et al. (2012) J. Biol. Chem. 287, 23368-23380). Briefly, human hepatocytes in 6-well plates were maintained for 3-4 days in Williams E medium containing Primary Hepatocyte Maintenance Supplement (Life Technologies), with daily media changes. Nine wells were used for each treatment group. […] The HepG2-hCAR1 stable cells in FIG. 9 were treated with DMSO, 1 μM CITCO, 5 μM CINPA1, or 1 μM CITCO+5 μM CINPA1 for […]. In FIG. 9, the hepatocytes from donor 7 were treated with DMSO, 0.1 μM CITCO, 1 μM CINPA1, or 0.1 μM CITCO+1 μM CINPA1 for 45 min. Proteins were cross-linked with 1% formaldehyde for 10 min. Cell extracts were digested for 10 min with 50 units of micrococcal nuclease (New England Biolabs) at 37° C. and further sonicated to yield sheared DNA fragments having an average length of 200-1000 base pairs. The sonicated samples were pelleted by centrifugation, and the supernatant was diluted 3- to 5-fold with ChIP dilution buffer (0.01% SDS, 1.1% Triton X-100, 1.2 mM EDTA, 16.7 mM Tris-HCl, pH 8.1, 167 mM NaCl, and protease inhibitor cocktail). […] Quantitative RT-PCR assays were performed to determine the change in CAR occupancy at various sites of CAR binding. […]

[2] = target: T1, hCAR1 interaction with coregulators (SRC-1, TIF2, SMRTα, mNCoR) (Homo sapiens, UniProt Q14994); experiment: Mammalian two-hybrid assay (HEK293T cells); assay type: cell-based
T1 construct: expressed in transfected cells; host or cells: HEK293T
T1 sequence (Q14994 1-348 isoform Q14994-2): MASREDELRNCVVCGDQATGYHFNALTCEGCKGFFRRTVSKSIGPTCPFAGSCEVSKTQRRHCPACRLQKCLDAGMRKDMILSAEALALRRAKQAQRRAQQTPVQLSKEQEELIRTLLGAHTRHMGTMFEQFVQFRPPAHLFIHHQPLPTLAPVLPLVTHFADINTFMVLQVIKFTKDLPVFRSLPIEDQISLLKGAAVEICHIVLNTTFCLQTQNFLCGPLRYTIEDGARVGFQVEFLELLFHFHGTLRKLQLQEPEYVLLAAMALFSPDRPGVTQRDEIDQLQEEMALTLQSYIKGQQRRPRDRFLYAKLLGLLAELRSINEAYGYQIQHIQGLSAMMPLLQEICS
Description: Briefly, mammalian two-hybrid assays were set up in HEK293T cells transfected with expression plasmids encoding VP16AD-hCAR1 fusion protein, GAL4DBD-co-activator fusion proteins, and the reporter plasmid pG5luc. […] Fold interaction represents pG5luc reporter activity normalized to the Renilla luciferase internal control. Data presented are the mean±SD of at least three independent transfections. *, p<0.001 compared to DMSO treatment within the indicated co-activator set. […] Briefly, mammalian two-hybrid assays were set up in HEK293T cells transfected with expression plasmids encoding VP16AD-hCAR1 fusion protein, GAL4DBD-co-repressor fusion proteins, and the reporter plasmid pG51luc. […] Fold interaction represents pG5luc reporter activity normalized to the Renilla luciferase internal control. Data presented are the mean±SD of at least three independent transfections. *, p<0.001 compared to DMSO treatment within the indicated co-repressor set.
The pACT-hCAR1, pBIND-coregulator peptide and pG5-luc were cotransfected into HEK293T cells. Renilla luciferase is constitutively expressed from the pBIND plasmids. The Dual-Glo Luciferase Assay (Promega) was used to measure pG5-luc luciferase activity. The relative luciferase activity was determined by normalizing firefly luciferase activity with Renilla luciferase activity.

[3] = human hepatocytes, 0.1 μM CITCO + 1 μM CINPA1, 45 min

CCOC(=O)Nc1ccc2c(c1)N(C(=O)CN(CC)CC)c1ccccc1CC2 [CINPA1]
CITCO-mediated recruitment of CAR and RNA polymerase II to XREM (dNR3) of the CYP2B6 promoter [1, 3]: effectively reduced
CITCO-mediated recruitment of CAR and RNA polymerase II to XREM of the CYP3A4 promoter [1, 3]: also reduced
CAR recruitment to XREM (dNR3) of the CYP2B6 gene ([1]; human primary hepatocytes, 3 donors, overnight, 1 μM CITCO or 5 μM CINPA1): prevents CAR recruitment
corepressor (SMRTα, mNCoR) interaction with CAR-LBD ([2]; 5 μM CINPA1, 24 h): increased interaction
coactivator (SRC-1, TIF-2) binding to CAR-LBD ([2]; 5 μM CINPA1, presence or absence of CITCO, 24 h): reduced SRC-1 and TIF-2 coactivator binding
